In ChEMBL document CHEMBL5316357, “Discovery of Linvencorvir (RG7907), a Hepatitis B Virus Core Protein Allosteric Modulator, for the Treatment of Chronic HBV Infection” (J Med Chem, 2023):
pIC50: −log10 of the molar value.

Tests used:
[1] = Cmax in female Wistar Han rat at 3 mg/kg,po by LC-MS/MS analysis; format: ADME, organism-based; parameters: dose 3 mg/kg, route po; settings: in vivo
[2] = Cmax in female Wistar Han rat at 10 mg/kg,po by LC-MS/MS analysis; format: ADME, organism-based; parameters: dose 10 mg/kg, route po; settings: in vivo
[3] = Half life in mouse plasma at 1 mg/kg,iv; format: ADME, organism-based
[4] = AUC (0-infinity) in rat plasma at 3 mg/kg,po; format: ADME, organism-based; parameters: dose 3 mg/kg, route po; settings: plasma
[5] = Oral bioavailability in rat plasma at 3 mg/kg; format: ADME, organism-based; settings: plasma
[6] = Ratio of AUC (0 to infinity) in liver to plasma of mouse at 3 mg/kg,po; format: ADME, organism-based; settings: read-out: Ratio AUC
[7] = Clearance in human hepatocyte at 2 uM measured upto 120 mins by LC-MS/MS analysis; format: ADME, cell-based; settings: hepatocytes
[8] = Clearance in minipig at 2 mg/kg,iv by LC-MS/MS analysis; format: ADME, organism-based, Sus scrofa domesticus; settings: pig, in vivo
[9] = Volume of distribution at steady state in cynomolgus monkey at 2 mg/kg,iv by LC-MS/MS analysis; format: ADME, organism-based, Macaca fascicularis; settings: in vivo, read-out: Vdss
[10] = Volume of distribution at steady state in minipig at 2 mg/kg,iv by LC-MS/MS analysis; format: ADME, organism-based, Sus scrofa domesticus; settings: pig, in vivo, read-out: Vdss
[11] = Half life in Wistar Han rat at 2 mg/kg,iv by LC-MS/MS analysis; format: ADME, organism-based; settings: in vivo
[12] = Half life in cynomolgus monkey at 2 mg/kg,iv by LC-MS/MS analysis; format: ADME, organism-based, Macaca fascicularis; settings: in vivo
[13] = AUClast in Wistar Han rat at 2 mg/kg,iv by LC-MS/MS analysis; format: ADME, organism-based; parameters: dose 2 mg/kg, route iv; settings: in vivo
[14] = Cmax in male Wistar Han rat at 3 mg/kg,po by LC-MS/MS analysis; format: ADME, organism-based; parameters: dose 3 mg/kg, route po; settings: in vivo
[15] = Cmax in male Wistar Han rat at 10 mg/kg,po by LC-MS/MS analysis; format: ADME, organism-based; parameters: dose 10 mg/kg, route po; settings: in vivo
[16] = Cmax in male Wistar Han rat at 30 mg/kg,po by LC-MS/MS analysis; format: ADME, organism-based; parameters: dose 30 mg/kg, route po; settings: in vivo
[17] = Cmax in male cynomolgus monkey at 3 mg/kg,po by LC-MS/MS analysis; format: ADME, organism-based, Macaca fascicularis; parameters: dose 3 mg/kg, route po; settings: in vivo
[18] = Cmax in female Wistar Han rat at 30 mg/kg,po by LC-MS/MS analysis; format: ADME, organism-based; parameters: dose 30 mg/kg, route po; settings: in vivo
[19] = Cmax in female cynomolgus monkey at 10 mg/kg,po by LC-MS/MS analysis; format: ADME, organism-based, Macaca fascicularis; parameters: dose 10 mg/kg, route po; settings: in vivo
[20] = Cmax in female cynomolgus monkey at 30 mg/kg,po by LC-MS/MS analysis; format: ADME, organism-based, Macaca fascicularis; parameters: dose 30 mg/kg, route po; settings: in vivo
[21] = Cmax in female minipig at 3 mg/kg,po by LC-MS/MS analysis; format: ADME, organism-based, Sus scrofa domesticus; parameters: dose 3 mg/kg, route po; settings: pig, in vivo
[22] = Cmax in female minipig at 30 mg/kg,po by LC-MS/MS analysis; format: ADME, organism-based, Sus scrofa domesticus; parameters: dose 30 mg/kg, route po; settings: pig, in vivo
[23] = Tmax in male Wistar Han rat at 30 mg/kg,po by LC-MS/MS analysis; format: ADME, organism-based; settings: in vivo
[24] = Tmax in male cynomolgus monkey at 10 mg/kg,po by LC-MS/MS analysis; format: ADME, organism-based, Macaca fascicularis; settings: in vivo
[25] = Tmax in male minipig at 3 mg/kg,po by LC-MS/MS analysis; format: ADME, organism-based, Sus scrofa domesticus; settings: pig, in vivo
[26] = Tmax in male minipig at 30 mg/kg,po by LC-MS/MS analysis; format: ADME, organism-based, Sus scrofa domesticus; settings: pig, in vivo
[27] = Tmax in female cynomolgus monkey at 3 mg/kg,po by LC-MS/MS analysis; format: ADME, organism-based, Macaca fascicularis; settings: in vivo
[28] = Tmax in female minipig at 10 mg/kg,po by LC-MS/MS analysis; format: ADME, organism-based, Sus scrofa domesticus; settings: pig, in vivo
[29] = Tmax in female minipig at 30 mg/kg,po by LC-MS/MS analysis; format: ADME, organism-based, Sus scrofa domesticus; settings: pig, in vivo
[30] = Half life in male cynomolgus monkey at 10 mg/kg,po by LC-MS/MS analysis; format: ADME, organism-based, Macaca fascicularis; settings: in vivo
[31] = Half life in male cynomolgus monkey at 30 mg/kg,po by LC-MS/MS analysis; format: ADME, organism-based, Macaca fascicularis; settings: in vivo
[32] = Half life in male minipig at 3 mg/kg,po by LC-MS/MS analysis; format: ADME, organism-based, Sus scrofa domesticus; settings: pig, in vivo
[33] = Half life in male minipig at 30 mg/kg,po by LC-MS/MS analysis; format: ADME, organism-based, Sus scrofa domesticus; settings: pig, in vivo
[34] = Half life in female Wistar Han rat at 3 mg/kg,po by LC-MS/MS analysis; format: ADME, organism-based; settings: in vivo
[35] = Half life in female Wistar Han rat at 10 mg/kg,po by LC-MS/MS analysis; format: ADME, organism-based; settings: in vivo
[36] = Half life in female Wistar Han rat at 30 mg/kg,po by LC-MS/MS analysis; format: ADME, organism-based; settings: in vivo
[37] = Half life in female cynomolgus monkey at 30 mg/kg,po by LC-MS/MS analysis; format: ADME, organism-based, Macaca fascicularis; settings: in vivo
[38] = Half life in female minipig at 3 mg/kg,po by LC-MS/MS analysis; format: ADME, organism-based, Sus scrofa domesticus; settings: pig, in vivo
[39] = AUClast in male Wistar Han rat at 10 mg/kg,po by LC-MS/MS analysis; format: ADME, organism-based; parameters: dose 10 mg/kg, route po; settings: in vivo
[40] = AUClast in male cynomolgus monkey at 3 mg/kg,po by LC-MS/MS analysis; format: ADME, organism-based, Macaca fascicularis; parameters: dose 3 mg/kg, route po; settings: in vivo
[41] = AUClast in female Wistar Han rat at 10 mg/kg,po by LC-MS/MS analysis; format: ADME, organism-based; parameters: dose 10 mg/kg, route po; settings: in vivo
[42] = AUClast in female cynomolgus monkey at 3 mg/kg,po by LC-MS/MS analysis; format: ADME, organism-based, Macaca fascicularis; parameters: dose 3 mg/kg, route po; settings: in vivo
[43] = AUClast in female cynomolgus monkey at 30 mg/kg,po by LC-MS/MS analysis; format: ADME, organism-based, Macaca fascicularis; parameters: dose 30 mg/kg, route po; settings: in vivo
[44] = Oral bioavailability in male cynomolgus monkey at 30 mg/kg by LC-MS/MS analysis; format: ADME, organism-based, Macaca fascicularis; settings: in vivo
[45] = Oral bioavailability in male minipig at 30 mg/kg by LC-MS/MS analysis; format: ADME, organism-based, Sus scrofa domesticus; settings: pig, in vivo
[46] = Oral bioavailability in female cynomolgus monkey at 10 mg/kg by LC-MS/MS analysis; format: ADME, organism-based, Macaca fascicularis; settings: in vivo
[47] = target: Cytochrome P450 2C19 (Homo sapiens, UniProt P33261); test: Inhibition of CYP2C19 (unknown origin); format: ADME
[48] = target: T1, Cytochrome P450 1A2 (Homo sapiens, UniProt P05177); test: Inhibition of CYP1A2 (unknown origin); format: ADME
T1 sequence (P05177 whole entry): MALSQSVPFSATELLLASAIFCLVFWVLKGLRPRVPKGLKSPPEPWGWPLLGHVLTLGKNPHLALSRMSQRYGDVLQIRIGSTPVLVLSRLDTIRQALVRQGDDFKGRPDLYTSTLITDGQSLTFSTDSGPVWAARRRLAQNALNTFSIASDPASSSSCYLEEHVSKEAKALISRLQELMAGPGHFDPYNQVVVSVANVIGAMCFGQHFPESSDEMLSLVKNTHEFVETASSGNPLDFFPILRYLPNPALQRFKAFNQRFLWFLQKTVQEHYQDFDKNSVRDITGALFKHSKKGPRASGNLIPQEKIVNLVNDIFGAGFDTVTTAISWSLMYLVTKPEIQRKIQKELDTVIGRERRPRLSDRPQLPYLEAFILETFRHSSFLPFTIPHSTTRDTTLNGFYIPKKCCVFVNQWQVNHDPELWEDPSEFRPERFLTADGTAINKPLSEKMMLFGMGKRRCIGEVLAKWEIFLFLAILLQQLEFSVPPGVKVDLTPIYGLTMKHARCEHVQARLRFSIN

Chain of Cytochrome P450 2C19 (P33261 whole entry): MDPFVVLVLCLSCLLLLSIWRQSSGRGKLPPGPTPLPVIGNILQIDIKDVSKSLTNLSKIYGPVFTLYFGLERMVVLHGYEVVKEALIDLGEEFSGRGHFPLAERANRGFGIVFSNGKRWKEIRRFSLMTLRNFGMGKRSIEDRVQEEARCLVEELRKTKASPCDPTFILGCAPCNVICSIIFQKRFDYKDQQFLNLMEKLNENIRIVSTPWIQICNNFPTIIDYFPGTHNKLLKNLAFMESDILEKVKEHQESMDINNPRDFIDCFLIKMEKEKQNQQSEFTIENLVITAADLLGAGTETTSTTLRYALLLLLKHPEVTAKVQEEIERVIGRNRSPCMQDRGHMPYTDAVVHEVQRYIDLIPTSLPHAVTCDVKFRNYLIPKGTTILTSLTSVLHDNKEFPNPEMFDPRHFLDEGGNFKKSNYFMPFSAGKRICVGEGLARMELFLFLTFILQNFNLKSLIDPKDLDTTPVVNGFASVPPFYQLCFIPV

`CCOC(=O)C1=C(CN2CCN3C(=O)N(CC(C)(C)C(=O)O)C[C@@H]3C2)NC(c2nccs2)=N[C@H]1c1cccc(F)c1C` [LINVENCORVIR] showed a Cmax [1] of 80.4 ng/mL, a Cmax [2] of 683 ng/mL and a half-life [3] of 0.9 h. The AUC(0-inf) [4] was 70 ng·h/mL, the bioavailability [5] was 14% and the Kp [6] was 32. For the same compound, the CLhep predicted at 2 µM [7] was 5.6 mL/min/kg, the clearance [8] was 24.1 mL/min/kg and the Vd [9] was 0.67 L/kg. For the same compound, the Vd [10] was 1.12 L/kg, the half-life [11] was 1.46 h and the half-life [12] was 1.77 h. For the same compound, the AUC(0-t) [13] was 1120 ng·h/mL, the Cmax [14] was 70.2 ng/mL and the Cmax [15] was 512 ng/mL. The Cmax [16] was 1350 ng/mL, the Cmax [17] was 64 ng/mL and the Cmax [18] was 3310 ng/mL. The Cmax [19] was 336 ng/mL, the Cmax [20] was 841 ng/mL and the Cmax [21] was 46 ng/mL. For the same compound, the Cmax [22] was 429 ng/mL, the Tmax [23] was 1 h and the Tmax [24] was 2 h. For the same compound, the Tmax [25] was 0.5 h, the Tmax [26] was 2 h and the Tmax [27] was 0.25 h. It also gave a Tmax [28] of 0.5 h, a Tmax [29] of 2 h and a half-life [30] of 6.64 h. The half-life [31] was 6.12 h, the half-life [32] was 9.69 h and the half-life [33] was 7.64 h. For the same compound, the half-life [34] was 2.15 h, the half-life [35] was 1.53 h and the half-life [36] was 1.8 h. For the same compound, the half-life [37] was 5.98 h, the half-life [38] was 9.68 h and the AUC(0-t) [39] was 1440 ng·h/mL. For the same compound, the AUC(0-t) [40] was 280 ng·h/mL, the AUC(0-t) [41] was 1970 ng·h/mL and the AUC(0-t) [42] was 253 ng·h/mL. It also gave an AUC(0-t) [43] of 3150 ng·h/mL, a bioavailability [44] of 25.8% and a bioavailability [45] of 20.6%. It also gave a bioavailability [46] of 18.2%, a pIC50 [47] of under 4.30 and a pIC50 [48] of under 4.30.
